Measured values reported in US8148391B2 (Cephalon, Inc., priority 2006, dated 2012).
Read-outs that look alike come from different tables or passages of the source.

What was measured:
[1] = biological target: T1, baculovirus-expressed ALK (Homo sapiens, UniProt Q9UM73); assay: ALK Kinase Assay (ELISA-type, time-resolved fluorescence); format: biochemical
T1 construct: host or cells: baculovirus expression system
In short: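 Substrate coating: phospholipase C-γ, 10 μg/mL in TBS. Kinase step: 30 ng/ml ALK, 15 min, 37° C. Detection and analysis: Eu-N1 PT66 antibody, with IC50 fitted as a sigmoidal variable-slope dose-response curve.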

[2] = biological target: T2, c-Met (cytoplasmic domain) (Homo sapiens, UniProt P08581); assay: c-Met Kinase Assay (same methods as for ALK, with modifications); format: biochemical
T2 construct: 10 ng/mL c-Met (cytoplasmic domain, Invitrogen Corporation #PV3143); purchased Invitrogen Corporation PV3143
T2 sequence (P08581 956-1390 limits assumed): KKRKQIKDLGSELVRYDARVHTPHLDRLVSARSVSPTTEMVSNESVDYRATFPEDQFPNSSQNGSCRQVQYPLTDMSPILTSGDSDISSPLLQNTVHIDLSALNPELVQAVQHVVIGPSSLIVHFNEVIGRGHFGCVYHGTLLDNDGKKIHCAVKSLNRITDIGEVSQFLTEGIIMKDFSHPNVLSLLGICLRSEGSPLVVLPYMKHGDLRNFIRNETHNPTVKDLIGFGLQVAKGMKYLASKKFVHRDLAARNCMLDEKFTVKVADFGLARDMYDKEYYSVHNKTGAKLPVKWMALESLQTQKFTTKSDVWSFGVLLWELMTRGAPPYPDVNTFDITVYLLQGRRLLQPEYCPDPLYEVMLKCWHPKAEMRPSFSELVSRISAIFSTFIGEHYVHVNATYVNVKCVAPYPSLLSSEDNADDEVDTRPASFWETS
In short: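 This plate-based kinase format uses immobilized phospholipase C-γ as substrate, phosphorylated by c-Met cytoplasmic domain (10 ng/mL) at 37° C for 15 minutes.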

[3] = 1 μM ATP (Km level), 30 ng/ml ALK, 37° C., 15 minutes, read-out: ALK Activity (ALK kinase inhibition, IC50 class)
[4] = 1 μM ATP (Km level), 10 ng/mL c-Met, read-out: cMet Activity (c-Met kinase inhibition, IC50 class)
[5] = 1 μM ATP (Km level), read-out: ALK Activity (ALK Kinase Inhibition, IC50)
[6] = 1 μM ATP (Km level), read-out: cMet Activity (c-Met Kinase Inhibition, IC50)
[7] = ALK kinase inhibition, 1 μM ATP (Km level), read-out: ALK Activity
[8] = c-Met kinase inhibition, 1 μM ATP (Km level), read-out: cMet Activity
[9] = ALK kinase inhibition, 1 μM ATP, read-out: ALK Activity
[10] = c-Met kinase inhibition, 1 μM ATP, read-out: cMet Activity

T1 sequence (Q9UM73 19-1620): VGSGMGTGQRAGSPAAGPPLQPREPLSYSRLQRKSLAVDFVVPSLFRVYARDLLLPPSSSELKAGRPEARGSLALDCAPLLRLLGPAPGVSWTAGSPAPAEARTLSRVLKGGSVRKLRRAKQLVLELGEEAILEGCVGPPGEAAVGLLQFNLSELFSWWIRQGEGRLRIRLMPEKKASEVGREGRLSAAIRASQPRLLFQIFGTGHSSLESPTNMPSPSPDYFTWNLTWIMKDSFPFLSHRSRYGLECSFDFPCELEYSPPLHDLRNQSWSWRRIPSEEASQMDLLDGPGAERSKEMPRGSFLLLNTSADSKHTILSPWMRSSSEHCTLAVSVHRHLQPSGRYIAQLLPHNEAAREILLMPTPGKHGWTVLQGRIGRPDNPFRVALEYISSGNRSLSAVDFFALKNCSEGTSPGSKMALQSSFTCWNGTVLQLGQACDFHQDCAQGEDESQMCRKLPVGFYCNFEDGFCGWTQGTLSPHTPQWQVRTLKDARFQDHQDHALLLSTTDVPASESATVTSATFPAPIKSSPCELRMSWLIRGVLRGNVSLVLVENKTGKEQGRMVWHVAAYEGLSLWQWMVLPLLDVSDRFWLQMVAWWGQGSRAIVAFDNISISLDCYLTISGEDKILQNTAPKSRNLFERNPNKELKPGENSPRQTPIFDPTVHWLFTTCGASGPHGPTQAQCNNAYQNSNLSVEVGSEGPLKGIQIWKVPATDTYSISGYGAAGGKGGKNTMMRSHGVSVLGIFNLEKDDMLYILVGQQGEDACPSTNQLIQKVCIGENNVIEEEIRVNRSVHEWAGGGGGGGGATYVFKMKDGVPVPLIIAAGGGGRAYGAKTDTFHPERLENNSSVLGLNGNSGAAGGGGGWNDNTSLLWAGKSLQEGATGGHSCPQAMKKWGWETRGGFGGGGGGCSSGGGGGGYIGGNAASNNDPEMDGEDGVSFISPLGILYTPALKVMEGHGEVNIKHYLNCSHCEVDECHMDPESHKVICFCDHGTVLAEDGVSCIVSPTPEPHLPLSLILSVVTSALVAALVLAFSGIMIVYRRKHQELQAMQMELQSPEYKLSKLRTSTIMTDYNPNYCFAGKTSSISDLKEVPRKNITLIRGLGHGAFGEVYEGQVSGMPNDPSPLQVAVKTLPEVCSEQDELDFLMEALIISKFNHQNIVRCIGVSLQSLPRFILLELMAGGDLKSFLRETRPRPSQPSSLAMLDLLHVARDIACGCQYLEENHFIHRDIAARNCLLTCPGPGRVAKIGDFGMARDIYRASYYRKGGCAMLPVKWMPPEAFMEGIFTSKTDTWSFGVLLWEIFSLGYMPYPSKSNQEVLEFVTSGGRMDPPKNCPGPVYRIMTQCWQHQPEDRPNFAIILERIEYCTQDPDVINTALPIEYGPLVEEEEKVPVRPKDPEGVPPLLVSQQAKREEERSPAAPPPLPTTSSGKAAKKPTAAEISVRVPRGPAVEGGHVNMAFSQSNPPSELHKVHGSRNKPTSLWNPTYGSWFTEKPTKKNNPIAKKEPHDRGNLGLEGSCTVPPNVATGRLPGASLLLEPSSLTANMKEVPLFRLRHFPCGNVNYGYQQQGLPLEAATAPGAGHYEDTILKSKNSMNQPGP

SMILES | IC50 [1, 3] [nM] | IC50 [2, 4] [nM] | IC50 [1, 7] [nM] | IC50 [2, 8] [nM] | further results
CCN1C(=O)CCCc2c1ccc(Nc1ncc(Cl)c(Nc3ccc(OC)cc3-n3cccn3)n1)c2OC [Example 613, 7-[5-Chloro-4-(4-methoxy-2-pyrazol-1-yl-phenylamino)-pyrimidin-2-ylamino]-1-ethyl-6-methoxy-1,3,4,5-tetrahydro-benzo[b]azepin-2-one] | – | – | – | – | IC50 [1, 5]: < 100 nM; IC50 [2, 6]: > 10000 nM
CCN(CC)CCN1CCNC(=O)c2ccc(Nc3ncc(Cl)c(Nc4ccccc4C(=O)NC)n3)cc21 [Example 415, 2-{5-Chloro-2-[1-(2-diethylamino-ethyl)-5-oxo-2,3,4,5-tetrahydro-1H-benzo[e][1,4]diazepin-8-ylamino]-pyrimidin-4-ylamino}-N-methylbenzamide] | – | – | < 100 | 100 to 1000 | –
CCCCNC(=O)c1ccccc1Nc1nc(Nc2cc3c(cc2OC)CCN(CCOC)CC3)ncc1Cl [Example 1031, N-Butyl-2-{5-chloro-2-[8-methoxy-3-(2-methoxy-ethyl)-2,3,4,5-tetrahydro-1H-benzo[d]azepin-7-ylamino]-pyrimidin-4-ylamino}-benzamide] | < 100 | > 10000 | – | – | –
CCN1C(=O)CCCc2c1ccc(Nc1ncc(Cl)c(N[C@@H]3CCCC[C@H]3NS(C)(=O)=O)n1)c2OC [Example 120, N-{(1R,2R)-2-[5-Chloro-2-(1-ethyl-6-methoxy-2-oxo-2,3,4,5-tetrahydro-1H-benzo[b]azepin-7-ylamino)-pyrimidin-4-ylamino]-cyclohexyl}-methanesulfonamide] | – | – | < 100 | > 10000 | –
CNC(=O)c1sccc1Nc1nc(Nc2ccc3c(c2)N(CCOC)C(=O)CCC3)ncc1Cl [Example 1478, 3-{5-Chloro-2-[1-(2-methoxy-ethyl)-2-oxo-2,3,4,5-tetrahydro-1H-benzo[b]azepin-8-ylamino]-pyrimidin-4-ylamino}-thiophene-2-carboxylic acid methylamide] | – | – | – | – | IC50 [1, 9]: 100 to 1000 nM; IC50 [2, 10]: < 100 nM
CCN1CCN(CC)c2cc(Nc3nc(Nc4cc5c(cc4OC)CCN(CC(=O)N(C)C)CC5)ncc3Cl)ccc2C1=O [Example 724, 2-{7-[5-Chloro-4-(1,4-diethyl-5-oxo-2,3,4,5-tetrahydro-1H-benzo[e][1,4]diazepin-8-ylamino)-pyrimidin-2-ylamino]-8-methoxy-1,2,3,4-tetrahydro-benzo[d]azepin-3-yl}-N,N-dimethyl-acetamide] | – | – | – | – | IC50 [1, 5]: < 100 nM; IC50 [2, 6]: > 10000 nM
CS(=O)(=O)N[C@@H]1CCCC[C@H]1Nc1nc(Nc2ccc3c(c2)CCC(N2CCOCC2)CC3)ncc1Cl (stereo partly drawn) [Example 179, N-{(1R,2R)-2-[5-Chloro-2-(7-morpholin-4-yl-6,7,8,9-tetrahydro-5H-benzocyclohepten-2-ylamino)-pyrimidin-4-ylamino]-cyclohexyl}-methanesulfonamide] | – | – | < 100 | 100 to 1000 | –
CCN1C(=O)CCCc2c1ccc(Nc1ncc(Cl)c(N[C@@H]3CCC[C@H]3NS(C)(=O)=O)n1)c2OC (relative stereo) [Example 374, N-{trans-2-[5-Chloro-2-(1-ethyl-6-methoxy-2-oxo-2,3,4,5-tetrahydro-1H-benzo[b]azepin-7-ylamino)-pyrimidin-4-ylamino]-cyclopentyl}-methanesulfonamide] | – | – | 100 to 1000 | > 10000 | –
CNC(=O)c1scc(C)c1Nc1nc(Nc2ccc3c(c2)CC(=O)N(C)CC3)ncc1Cl [Example 1816, 3-[5-Chloro-2-(3-methyl-4-oxo-2,3,4,5-tetrahydro-1H-benzo[d]azepin-7-ylamino)-pyrimidin-4-ylamino]-4-methyl-thiophene-2-carboxylic acid methylamide] | – | – | – | – | IC50 [1, 9]: < 100 nM; IC50 [2, 10]: 100 to 1000 nM
CNC(=O)c1ccccc1Nc1nc(Nc2ccc3c(c2)CCN(C)CC3)ncc1Cl [Example 46, 2-[5-Chloro-2-(3-methyl-2,3,4,5-tetrahydro-1H-benzo[d]azepin-7-ylamino)-pyrimidin-4-ylamino]-N-methyl-benzamide] | – | – | < 100 | < 100 | –
CNC(=O)c1ccccc1Nc1nc(Nc2ccc3c(c2)C2CCC3CN(CC#N)C2)ncc1Cl (stereo not drawn) [Example 281, 2-[5-Chloro-2-(10-cyanomethyl-10-aza-tricyclo[6.3.2.0*2,7*]trideca-2,4,6-trien-4-ylamino)-pyrimidin-4-ylamino]-N-methyl-benzamide] | – | – | < 100 | < 100 | –
CNC(=O)c1ccccc1Nc1nc(Nc2cc3c(cc2OC)CCN(CC(C)(F)F)CC3)ncc1Cl [Example 786, 2-{5-Chloro-2-[3-(2,2-difluoro-propyl)-8-methoxy-2,3,4,5-tetrahydro-1H-benzo[d]azepin-7-ylamino]-pyrimidin-4-ylamino}-N-methyl-benzamide] | – | – | – | – | IC50 [1, 5]: < 100 nM; IC50 [2, 6]: > 10000 nM
CNC(=O)[C@@H]1[C@H](Nc2nc(Nc3ccc4c(c3)C(C)(C)CCC(=O)N4)ncc2Cl)[C@H]2C=C[C@@H]1C2 (relative stereo) [Example 620, (2-exo-3-exo)-3-[5-Chloro-2-(5,5-dimethyl-2-oxo-2,3,4,5-tetrahydro-1H-benzo[b]azepin-7-ylamino)-pyrimidin-4-ylamino]-bicyclo[2.2.1]hept-5-ene-2-carboxylic acid methylamide] | – | – | – | – | IC50 [1, 5]: < 100 nM; IC50 [2, 6]: 100 to 1000 nM
CNC(=O)c1ccccc1Nc1nc(Nc2ccc3c(c2)CCN(C[C@H](O)C(F)(F)F)CC3)ncc1Cl [Example 328, 2-{5-Chloro-2-[3-((S)-3,3,3-trifluoro-2-hydroxy-propyl)-2,3,4,5-tetrahydro-1H-benzo[d]azepin-7-ylamino]-pyrimidin-4-ylamino}-N-methyl-benzamide] | – | – | < 100 | < 100 | –
COCCN1CCc2ccc(Nc3ncc(Cl)c(Nc4ccccc4-c4cccc(C)n4)n3)cc2CC1 [Example 1009, 5-Chloro-N*2*-[3-(2-methoxy-ethyl)-2,3,4,5-tetrahydro-1H-benzo[d]azepin-7-yl]-N*4*-[2-(6-methyl-pyridin-2-yl)-phenyl]-pyrimidine-2,4-diamine] | – | – | – | – | IC50 [1, 5]: < 100 nM; IC50 [2, 6]: 100 to 1000 nM
Cc1cccc(C(=O)NCC#N)c1Nc1nc(Nc2ccc3c(c2)C(C)(C)CCC(=O)N3)ncc1Cl [Example 1038, 2-[5-Chloro-2-(5,5-dimethyl-2-oxo-2,3,4,5-tetrahydro-1H-benzo[b]azepin-7-ylamino)-pyrimidin-4-ylamino]-N-cyanomethyl-3-methyl-benzamide] | < 100 | 100 to 1000 | – | – | –
CCOC(=O)N1C2CCC1c1cc(Nc3ncc(Cl)c(Nc4ccccc4C(=O)NC)n3)ccc1C2 (stereo not drawn) [Example 67, 4-[5-Chloro-4-(2-methylcarbamoyl-phenylamino)-pyrimidin-2-ylamino]-12-aza-tricyclo[7.2.1.0*2,7*]dodeca-2(7),3,5-triene-12-carboxylic acid ethyl ester] | – | – | < 100 | < 100 | –
CCN1CCN(CC)c2cc(Nc3ncc(Cl)c(Nc4ccccc4C(=O)OCCOC)n3)ccc2C1 [Example 713, 2-[5-Chloro-2-(1,4-diethyl-2,3,4,5-tetrahydro-1H-benzo[e][1,4]diazepin-8-ylamino)-pyrimidin-4-ylamino]-benzoic acid 2-methoxy-ethyl ester] | – | – | – | – | IC50 [1, 5]: < 100 nM; IC50 [2, 6]: 1000 to 10000 nM

Now from value to compound, other results behind:

IC50 [1, 3] [nM] | IC50 [2, 4] [nM] | IC50 [1, 7] [nM] | IC50 [2, 8] [nM] | SMILES | further results
< 100 | < 100 | – | – | CCN1C(=O)CCCc2ccc(Nc3ncc(Cl)c(Nc4ccccc4OCC#N)n3)cc21 [Example 1230, {2-[5-Chloro-2-(1-ethyl-2-oxo-2,3,4,5-tetrahydro-1H-1-benzazepin-8-ylamino)-pyrimidin-4-ylamino]-phenoxy}-acetonitrile] | –
< 100 | > 10000 | – | – | COc1cc2c(cc1Nc1ncc(Cl)c(N[C@H]3[C@@H](C(N)=O)[C@@H]4C=C[C@H]3C4)n1)CCC(NCCO)CC2 (single isomer, unassigned) [Example 1096] | –
1000 to 10000 | > 10000 | – | – | CNC(=O)C1(Nc2nc(Nc3cc4c(cc3OC)CCN(CCOC)CC4)ncc2Cl)CC1 [Example 1196, 1-{5-Chloro-2-[8-methoxy-3-(2-methoxy-ethyl)-2,3,4,5-tetrahydro-1H-benzo[d]azepin-7-ylamino]-pyrimidin-4-ylamino}-cyclopropanecarboxylic acid methylamide] | –
< 100 | 1000 to 10000 | – | – | COc1cc2c(cc1Nc1ncc(Cl)c(Nc3ccccc3S(=O)(=O)N3CC[C@@H](O)C3)n1)CCN(CC(=O)N(C)C)CC2 [Example 1205, 2-(7-{5-Chloro-4-[2-((R)-3-hydroxy-pyrrolidine-1-sulfonyl)-phenylamino]-pyrimidin-2-ylamino}-8-methoxy-1,2,4,5-tetrahydro-benzo[d]azepin-3-yl)-N,N-dimethyl-acetamide] | –
< 100 | 1000 to 10000 | – | – | COc1cc2c(cc1Nc1ncc(Cl)c(Nc3ccccc3S(=O)(=O)N(C)C)n1)CCC(NCCO)CC2 (stereo not drawn) [Example 1089, 2-{5-Chloro-2-[7-(2-hydroxy-ethylamino)-3-methoxy-6,7,8,9-tetrahydro-5H-benzocyclohepten-2-ylamino]-pyrimidin-4-ylamino}-N,N-dimethyl-benzenesulfonamide] | –
100 to 1000 | 1000 to 10000 | – | – | CCOC(=O)N1CCCOc2ccc(Nc3ncc(Cl)c(Nc4ccsc4C(=O)NC)n3)cc21 [Example 1411, 2-[5-Chloro-4-(2-methylcarbamoyl-thiophen-3-ylamino)-pyrimidin-2-ylamino]-7,8-dihydro-6H-5-oxa-9-aza-benzocycloheptene-9-carboxylic acid ethyl ester] | –
